One test concerns the target T1, mature PSI (Avena sativa, UniProt A0A3G1AUL2+A0A3G1AZK6).
T1 construct: gene psaA; native PSI-LHCI complex purified from mature green leaves, detergent-solubilised; with Photosystem I iron-sulfur center; Photosystem I reaction center subunit II, chloroplastic; Photosystem I reaction center subunit IV, chloroplastic; Photosystem I reaction center subunit III, chloroplastic; Photosystem I reaction center subunit V, chloroplastic; Photosystem I reaction center subunit VI, chloroplastic; Photosystem I reaction center subunit VIII; Photosystem I reaction center subunit IX; Photosystem I reaction center subunit psaK, chloroplastic; Photosystem I reaction center subunit XI, chloroplastic; Photosystem I reaction center subunit N, chloroplastic
The test can be described thus: cryo-EM structure ([…] Å). The test is classed as binding.

In test [1] the target is T2, pre-PSI-1 (PSI assembly intermediate) (Avena sativa, UniProt A0A3G1AUL2+A0A3G1AZK6).
T2 construct: gene psaA; native eight-subunit complex from thylakoids of greening seedlings (10 h light), DDM-solubilised; lacks PsaF, PsaG, PsaJ, PsaK, PsaN and LHCI; with Photosystem I iron-sulfur center; Photosystem I reaction center subunit II, chloroplastic; Photosystem I reaction center subunit IV, chloroplastic; Photosystem I reaction center subunit VI, chloroplastic; Photosystem I reaction center subunit VIII; Photosystem I reaction center subunit XI, chloroplastic
Description: cryo-EM structure ([…] Å). The test is classed as binding. Conditions: native cofactor; site PQN844 of PsaA.

Structures are written as SMILES.

T1 sequence (A0A3G1AUL2 1-750): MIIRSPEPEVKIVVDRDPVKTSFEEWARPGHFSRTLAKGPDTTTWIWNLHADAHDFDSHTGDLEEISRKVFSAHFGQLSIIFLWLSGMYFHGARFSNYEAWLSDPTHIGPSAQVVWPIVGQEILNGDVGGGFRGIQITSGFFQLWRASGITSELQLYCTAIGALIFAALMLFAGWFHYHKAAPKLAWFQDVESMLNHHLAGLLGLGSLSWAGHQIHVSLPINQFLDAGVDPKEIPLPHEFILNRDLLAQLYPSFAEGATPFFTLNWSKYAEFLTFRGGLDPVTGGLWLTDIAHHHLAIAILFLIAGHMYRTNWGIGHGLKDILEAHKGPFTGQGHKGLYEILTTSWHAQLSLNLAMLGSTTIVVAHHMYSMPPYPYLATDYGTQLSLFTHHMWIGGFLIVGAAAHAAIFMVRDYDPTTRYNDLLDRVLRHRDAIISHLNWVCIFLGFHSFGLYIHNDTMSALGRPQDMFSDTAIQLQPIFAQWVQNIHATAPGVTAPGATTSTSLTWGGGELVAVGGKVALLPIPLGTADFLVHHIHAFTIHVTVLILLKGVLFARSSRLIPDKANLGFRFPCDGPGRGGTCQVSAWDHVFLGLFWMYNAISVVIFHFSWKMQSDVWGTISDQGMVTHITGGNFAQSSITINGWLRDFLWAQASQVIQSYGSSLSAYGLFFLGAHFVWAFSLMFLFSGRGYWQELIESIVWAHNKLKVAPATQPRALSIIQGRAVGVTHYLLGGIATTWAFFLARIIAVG
T1 sequence (A0A3G1AZK6 1-734): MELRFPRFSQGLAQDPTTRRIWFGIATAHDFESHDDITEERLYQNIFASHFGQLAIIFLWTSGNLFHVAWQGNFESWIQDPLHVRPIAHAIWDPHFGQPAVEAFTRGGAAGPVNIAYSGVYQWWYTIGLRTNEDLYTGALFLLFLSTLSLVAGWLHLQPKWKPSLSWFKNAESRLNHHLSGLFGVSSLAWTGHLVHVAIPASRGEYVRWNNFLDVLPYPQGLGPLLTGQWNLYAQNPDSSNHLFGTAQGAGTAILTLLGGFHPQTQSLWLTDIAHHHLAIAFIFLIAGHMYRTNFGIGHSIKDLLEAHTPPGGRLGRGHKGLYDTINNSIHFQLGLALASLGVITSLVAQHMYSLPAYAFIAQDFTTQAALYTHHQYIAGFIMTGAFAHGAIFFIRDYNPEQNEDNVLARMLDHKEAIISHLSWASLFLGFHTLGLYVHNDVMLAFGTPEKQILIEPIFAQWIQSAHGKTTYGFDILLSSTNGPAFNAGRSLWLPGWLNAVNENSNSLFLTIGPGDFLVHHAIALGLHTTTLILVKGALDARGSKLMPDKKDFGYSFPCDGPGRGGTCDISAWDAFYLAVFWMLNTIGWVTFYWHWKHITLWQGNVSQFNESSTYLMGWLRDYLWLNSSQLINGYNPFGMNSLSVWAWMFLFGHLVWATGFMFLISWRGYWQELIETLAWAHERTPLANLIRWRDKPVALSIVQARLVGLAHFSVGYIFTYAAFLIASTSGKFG
T1 sequence (A0A3G1ATU7 2-81 partner): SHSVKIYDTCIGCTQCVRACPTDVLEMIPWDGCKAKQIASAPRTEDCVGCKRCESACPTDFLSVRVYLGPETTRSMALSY
T1 sequence (A0A3G1AZM6 1-36 partner): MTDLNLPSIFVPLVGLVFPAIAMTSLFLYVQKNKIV
T1 sequence (A0A3G1AZP2 1-42 partner): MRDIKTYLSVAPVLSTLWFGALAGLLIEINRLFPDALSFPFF
T2 sequence (A0A3G1AUL2 1-750): as the sequence (A0A3G1AUL2 1-750) above
T2 sequence (A0A3G1AZK6 1-734): as the sequence (A0A3G1AZK6 1-734) above
T2 sequence (A0A3G1ATU7 2-81 partner): as the sequence (A0A3G1ATU7 2-81 partner) above
T2 sequence (A0A3G1AZM6 1-36 partner): as the sequence (A0A3G1AZM6 1-36 partner) above

Take `CC1=C(/C=C/C(C)=C/C=C/C(C)=C/C=C/C=C(C)/C=C/C=C(C)/C=C/C2=C(C)CCCC2(C)C)C(C)(C)CCC1` [BCR, β-carotene]: the “cryo-EM structure (2.2 Å)” value on mature PSI (native pigment, site BCR856, near the PSI core - LHCI interface) is given as “the head group of β-carotene BCR856 resides in the mature structure”.

`CC1=C(C/C=C(\C)CCC[C@H](C)CCC[C@H](C)CCCC(C)C)C(=O)c2ccccc2C1=O` [PQN, phylloquinone]: the “cryo-EM structure (2.2 Å)” value at mature PSI (native cofactor, site PQN844 of PsaA) is reported as “phylloquinone PQN844 (PsaA) shows an altered conformation of the isoprenoid chain”. The “cryo-EM structure (2.1 Å)” value in test [1] was “phylloquinone PQN844 (PsaA) shows an altered conformation of the isoprenoid chain”.

Values taken from paper PMC11208149, “Structure of plant photosystem I in a native assembly state defines PsaF as a regulatory checkpoint” (Nature Plants, 2024).
